Experimental data taken from patent publication US7208503B2, “Angiogenesis inhibiting 5-substituted-1,2,4-thiadiazolyl derivatives” (Janssen Pharmaceutica N.V., priority 2000, dated 2007).

Tested on: rat aortic ring microvessel formation
Experiment: rat aortic ring model of angiogenesis (microvessel formation)
Format: cell-based
Settings: 192 h; in vitro rat aortic rings, microvessel area after eight days in culture, compared to vehicle-treated control rings; read-out: IC50 (inhibition of microvessel formation, angiogenesis inhibitory activity)
Description: Angiogenesis inhibitory activity was measured in vitro using the rat aortic ring model of angiogenesis as described by Nicosia, R. F. and Ottinetti in “Laboratory Investigation”, vol. 63, p. 115, 1990. The ability of compounds to inhibit microvessel formation was compared to vehicle-treated control rings. Quantitation (microvessel area) following eight days in culture was performed using an image analysis system, consisting of a light microscope, a CCD camera and an automated, custom-designed image analysis program as described by Nissanov, J., Tuman, R. W., Gruver, L. M., and Fortunato, J. M. in “Laboratory Investigation”, vol 73 (#5), p. 734, 1995. Compounds were tested at several concentrations for determination of inhibitory potency (IC50's).

| IC50 | SMILES |
| --- | --- |
| < 10 nM | Cc1nsc(-c2ccc(N3CCN(c4cccc(C(F)(F)F)c4)CC3)cc2)n1 [Compound 2, 1-[4-(3-methyl-1,2,4-thiadiazol-5-yl)phenyl]-4-[3-(trifluoromethyl)phenyl]piperazine] |
| < 10 nM | Cc1nsc(-c2ccc(N3CCN(c4cccc(C(F)(F)F)c4)CC3)nc2)n1 [Compound 6, 1-[5-(3-methyl-1,2,4-thiadiazol-5-yl)-2-pyridinyl]-4-[3-(trifluoromethyl)-phenyl]-piperazine] |
